This note sets out measurements from PubChem BioAssay (NCI).

Among the test systems are DMS 114 small cell lung; DMS 273 small cell lung; HOP-18 NSCLC; KM20L2 colon; LXFL 529 NSCLC; RXF-631 renal; SNB-78 CNS; XF 498 CNS.
Common to all, as to test: growth of human tumour cells (NCI), 48 h

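Each compound was tested at five concentrations against cells in 96-well plates for 48 hours. At the TGI there is no net growth.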 A value given as a limit tells only on which side of the number the result lay.

Regarding `COC(=O)C1=C(CS(=O)c2ccc([N+](=O)[O-])cc2[N+](=O)[O-])C2C=CC1C2` (stereo not drawn), the TGI in the assay on DMS 114 small cell lung was 49.5 µM; in the assay with DMS 273 small cell lung, 43 µM; in the assay with HOP-18 NSCLC, more than 100 µM; in the assay on KM20L2 colon, 57.8 µM; in the assay with LXFL 529 NSCLC it was 56.9 µM; in the assay on RXF-631 renal, 32.7 µM. The TGI is more than 100 µM in the assay with SNB-78 CNS and 64.1 µM in the assay on XF 498 CNS.
